Reference: US20060100431A1, “Biologically active compounds” (Amura Therapeutics Limited, priority 2002, published 2006)

Experiments:
Format in all cases: biochemical
Wild-type cruzipain = Wild-type cruzipain (Trypanosoma cruzi, UniProt P25779); assay: Trypanosoma cruzi cruzipain peptidase activity assay (Ki); conditions: read-out: Ki, inhibitors of cruzain and cruzipains
How it was run: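 Native cruzipain from T. cruzi Dm28 epimastigotes, 2.5 nM, in 100 mM sodium phosphate pH 6.75 with 1 mM EDTA and 10 mM L-cysteine, 25 °C, DMSO <1%. Rates taken from continuous fluorogenic substrate read; Ki by regression assuming reversible pure-competitive inhibition.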

Bovine cathepsin S = target: T1, Bovine cathepsin S (Bos taurus, UniProt P25326); assay: Cathepsin S peptidase activity assay, bovine enzyme (Ki); conditions: species of cathepsin S not given; read-out: Ki, inhibitors of cathepsin S
T1 construct: purchased CN Biosciences
T1 sequence (P25326 115-331): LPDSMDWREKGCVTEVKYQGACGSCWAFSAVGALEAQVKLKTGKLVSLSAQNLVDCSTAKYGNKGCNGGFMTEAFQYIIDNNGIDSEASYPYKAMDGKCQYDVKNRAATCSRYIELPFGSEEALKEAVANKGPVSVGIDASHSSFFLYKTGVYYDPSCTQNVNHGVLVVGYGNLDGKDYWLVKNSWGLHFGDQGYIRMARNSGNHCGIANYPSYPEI
Method: Unless otherwise stated, all general chemicals and biochemicals were purchased from either the Sigma Chemical Company, Poole, Dorset, U.K or from Fisher Scientific UK, Loughborough, Leicestershire, U.K. Absorbance assays were carried out in flat-bottomed 96-well plates (Spectra; Greiner Bio-One Ltd., Stonehouse, Gloucestershire, U.K.) using a SpectraMax PLUS384 plate reader (Molecular Devices, Crawley, U.K.). Fluorescence high throughput assays were carried out in either 384-well microtitre plates (Corning Costar 3705 plates, Fisher Scientific) or 96-well ‘U’ bottomed Microfluor W1 microtitre plates (Thermo Labsystems, Ashford, Middlesex, U.K.). Fluorescence assays were monitored using a SpectraMax Gemini fluorescence plate reader (Molecular Devices). For substrates employing either a 7-amino-4-methylcoumarin (AMC) or a 7-amino-4-trifluoromethylcoumarin (AFC) fluorophore, assays were monitored at an excitation wavelength of 365 nm and an emission wavelength of 450 nm and the fluorescence plate reader calibrated with AMC. For substrates employing a 3-amino-benzoyl (Abz) fluorophore, assays were monitored at an excitation wavelength of 310 nm and an emission wavelength of 445 nm; the fluorescence plate reader calibrated with 3-amino-benzamide (Fluka). Unless otherwise indicated, all the peptidase substrates were purchased from Bachem UK, St Helens, Merseyside, UK. Substrates utilizing fluorescence resonance energy transfer methodology (i.e. FRET-based substrates) were synthesized at Incenta Limited using published methods (Atherton & Sheppard, Solid Phase Peptide Synthesis, IRL Press, Oxford, U.K, 1989) and employed Abz (2-aminobenzoyl) as the fluorescence donor and 3-nitro-tyrosine [Tyr(NO2)] as the fluorescence quencher (Meldal, M. and Breddam, K., Anal. Biochem, 195, 141-147, 1991). Hydroxyethylpiperazine ethanesulfonate (HEPES), tris-hydroxylmethyl aminomethane (tris) base, bis-tris-propane and all the biological detergents (e.g. CHAPS, zwittergents, etc.) were purchased from CN Biosciences UK, Beeston, Nottinghamshire, U.K. Glycerol was purchased from Amersham Pharmacia Biotech, Little Chalfont, Buckinghamshire, U.K. Stock solutions of substrate or inhibitor were made up to 10 mM in 100% dimethylsulfoxide (DMSO) (Rathburns, Glasgow, U.K.) and diluted as appropriately required. In all cases the DMSO concentration in the assays was maintained at less than 1% (vol./vol.).
Assay protocols were based on literature precedent (Table 4; Barrett, A. J., Rawlings, N. D. and Woessner, J. F., 1998, Handbook of Proteolytic Enzymes, Academic Press, London and references therein) and modified as required to suit local assay protocols. Enzyme was added as required to initiate the reaction and the activity, as judged by the change in fluorescence upon conversion of substrate to product, was monitored over time. All assays were carried out at 25±1° C.
Bovine cathepsin S, human cathepsin L, human cathepsin H and human cathepsin B were obtained from CN Biosciences. Recombinant human cathepsin S, human cathepsin K and human cathepsin X were obtained from Dr. Boris Turk (Josef Stefan Institute, Ljubljana, Slovenia). Unless otherwise stated, all peptidase activity assays were carried out in 10 mM bis-tris-propane (BTP), pH 6.5 containing 1 mM EDTA, 5 mM 2-mercaptoethanol and 1 mM CaCl2. Human cathepsin H activity assays were carried out in 10 mM BTP pH 6.5, 142 mM NaCl2, 1 mM CaCl2, 1 mM EDTA, 1 mM DTT, 0.035 mM Zwittergent 3-16. Human cathepsin K assays were carried out in 100 mM sodium acetate; pH 5.5 containing 20 mM L-cysteine and 1 mM EDTA (Bossard, M. J., et. al., J. Biol. Chem., 21, 12517-12524, 1996). Human cathepsin X assays were carried out in 100 mM sodium acetate; pH 5.5 containing 20 mM L-cysteine; 0.05% (w/v) Brij 35 and 1 mM EDTA (Santamaria, I., et. al., J. Biol. Chem., 273, 16816-16823, 1998; Klemencic, J, et al., Eur. J. Biochem., 267, 5404-5412, 2000).

human cathepsin L = target: T2, human cathepsin L (Homo sapiens, UniProt P07711); assay: Cathepsin L peptidase activity assay (Ki); conditions: read-out: Ki, inhibitors of cathepsin L
T2 construct: purchased CN Biosciences
T2 sequence (P07711 114-333): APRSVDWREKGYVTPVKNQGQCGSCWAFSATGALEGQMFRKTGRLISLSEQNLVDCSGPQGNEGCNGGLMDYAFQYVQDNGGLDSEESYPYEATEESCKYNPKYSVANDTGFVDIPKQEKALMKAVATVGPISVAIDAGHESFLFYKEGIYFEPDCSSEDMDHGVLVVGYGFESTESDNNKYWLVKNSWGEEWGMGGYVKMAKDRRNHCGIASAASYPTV
How it was run: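 Run at 25±1° C with DMSO under 1%: buffer was 10 mM BTP pH 6.5 containing 1 mM EDTA, 1 mM CaCl2 and 5 mM 2-mercaptoethanol. Enzyme (1 nM cathepsin L) was added last to start hydrolysis of Ac-Phe-Arg-AMC held at KM^app (~20 μM), followed kinetically by fluorescence at 365/450 nm.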

CPB2.8ΔCTE = target: T3, CPB2.8ΔCTE (Leishmania mexicana, UniProt P36400); assay: Leishmania mexicana cysteine protease B (CPB) peptidase activity assay (Ki); conditions: Ki, inhibitors of Leismania mexicana CPB protease
T3 construct: Wild-type recombinant CPB without the C-terminal extention (i.e. CPB2.8ΔCTE); Dr. Jeremy Mottram (Wellcome Centre for Molecular Parasitology, University of Glasgow)
T3 sequence (P36400 126-343, stated change not applied): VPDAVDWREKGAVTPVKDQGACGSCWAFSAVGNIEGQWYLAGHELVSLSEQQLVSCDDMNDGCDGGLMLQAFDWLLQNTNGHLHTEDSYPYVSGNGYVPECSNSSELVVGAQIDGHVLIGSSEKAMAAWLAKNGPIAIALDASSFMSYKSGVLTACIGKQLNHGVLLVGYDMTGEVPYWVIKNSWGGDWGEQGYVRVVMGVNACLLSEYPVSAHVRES
How it was run: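 Apparent Ki was derived by regression of activity against inhibitor concentration, assuming pure-competitive reversible binding. Reaction: 0.25 nM CPB lacking the C-terminal extension, pH 5.5 acetate buffer (1 mM EDTA, 200 mM NaCl, 10 mM DTT), 25 °C, followed by continuous substrate fluorescence.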

Measured: Ki

Sequence of Wild-type cruzipain (P25779 whole entry): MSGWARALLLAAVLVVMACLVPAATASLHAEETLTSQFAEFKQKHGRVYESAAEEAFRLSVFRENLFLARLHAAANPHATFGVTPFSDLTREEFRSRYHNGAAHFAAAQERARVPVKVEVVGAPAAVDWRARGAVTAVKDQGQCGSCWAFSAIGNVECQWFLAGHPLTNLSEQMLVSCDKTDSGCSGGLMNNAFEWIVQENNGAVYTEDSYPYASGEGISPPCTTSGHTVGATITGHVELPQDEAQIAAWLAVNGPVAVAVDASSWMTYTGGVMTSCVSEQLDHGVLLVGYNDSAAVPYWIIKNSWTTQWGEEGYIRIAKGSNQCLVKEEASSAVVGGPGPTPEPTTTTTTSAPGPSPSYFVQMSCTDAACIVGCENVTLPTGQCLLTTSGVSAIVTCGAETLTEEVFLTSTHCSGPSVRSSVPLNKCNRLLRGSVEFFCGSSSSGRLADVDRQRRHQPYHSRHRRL

CCC[C@H](NC(C)=O)C(=O)N1CC(=O)[C@@H]2[C@H]1CCN2C(=O)[C@H](CC(C)C)NC(=O)c1ccc(N(C)C)cc1 [Example 245, (3aR,6aS)-N-{(1S)-1-[4-((2S)-2-Acetylamino-pentanoyl)-6-oxo-hexahydro-pyrrolo[3,2-b]pyrrole-1-carbonyl]-3-methyl-butyl}-4-dimethylamino-benzamide]
< 5 µM: all assays above

CCc1ccc(C(=O)N[C@@H](CC(C)C)C(=O)N2CC[C@@H]3[C@H]2C(=O)CN3C(=O)c2ccccc2)cc1 [Example 171, (3aR,6aS)-N-[(1S)-1-(4-Benzoyl-6-oxo-hexahydro-pyrrolo[3,2-b]pyrrole-1-carbonyl)-3-methyl-butyl]-4-ethyl-benzamide]
< 5 µM: all assays above

CC[C@H](C)[C@H](NC(=O)OCc1ccccc1)C(=O)N1CC(=O)[C@@H]2[C@H]1CCN2C(=O)[C@H](CC(C)C)NC(=O)c1ccc(N(C)C)cc1 [Example 161, (3 aS,6aR)-((1S,2S)-1-{4-[(2S)-2-(4-Dimethylamino-benzoylamino)-4-methyl-pentanoyl]-3-oxo-hexahydro-pyrrolo[3,2-b]pyrrole-1-carbonyl}-2-methyl-butyl)-carbamic acid benzyl ester]
< 5 µM: all assays above

CC[C@H](NC(=O)OCc1ccccc1)C(=O)N1CC(=O)[C@@H]2[C@H]1CCN2C(=O)[C@H](CC(C)C)NC(=O)c1ccc(N(C)C)cc1 [Example 159, (3aS,6aR)-((1S)-1-{4-[(2S)-2-(4-Dimethylamino-benzoylamino)-4-methyl-pentanoyl]-3-oxo-hexahydro-pyrrolo[3,2-b]pyrrole-1-carbonyl}-propyl)-carbamic acid benzyl ester]
< 5 µM: all assays above

Cc1ccc(C(=O)N[C@@H](CC(C)C)C(=O)N2CC[C@@H]3[C@H]2C(=O)CN3C(=O)c2ccccc2)cc1 [Example 170]
< 5 µM: all assays above

CC(C)C[C@H](NC(=O)c1ccc2cc[nH]c2c1)C(=O)N1CC[C@@H]2[C@H]1C(=O)CN2C(=O)c1ccccc1 [Example 88, (3aR,6aS)-1H-Indole-6-carboxylic acid [(1S)-1-(4-benzoyl-6-oxo-hexahydro-pyrrolo[3,2-b]pyrrole-1-carbonyl)-3-methyl-butyl]-amide]
< 5 µM: all assays above

CC(C)C[C@H](NC(=O)c1ccc(N(C)C)cc1)C(=O)N1CC[C@@H]2[C@H]1C(=O)CN2C(=O)c1ccc2[nH]ccc2c1 [Example 98, (3aR,6aS)-4-Dimethylamino-N-{(1S)-1-[4-(1H-indole-5-carbonyl)-6-oxo-hexahydro-pyrrolo[3,2-b]pyrrole-1-carbonyl]-3-methyl-butyl}-benzamide]
< 5 µM: all assays above

Cc1c(C(=O)N[C@@H](CC(C)C)C(=O)N2CC[C@@H]3[C@H]2C(=O)CN3C(=O)c2cccnc2)oc2ccccc12 [Example 17, (3aR,6aS)-3-Methyl-benzofuran-2-carboxylic acid {(1S)-3-methyl-1-[6-oxo-4-(pyridine-3-carbonyl)-hexahydro-pyrrolo[3,2-b]pyrrole-1-carbonyl]-butyl}-amide]
< 5 µM: all assays above

CC(C)C[C@H](NC(=O)c1ccc2ncccc2c1)C(=O)N1CC[C@@H]2[C@H]1C(=O)CN2C(=O)c1ccccc1 [Example 86, (3aR,6aS)-Quinoline-6-carboxylic acid [(1S)-1-(4-benzoyl-6-oxo-hexahydro-pyrrolo[3,2-b]pyrrole-1-carbonyl)-3-methyl-butyl]-amide]
< 5 µM: all assays above

COc1cccc(C(=O)N2CC(=O)[C@@H]3[C@H]2CCN3C(=O)[C@H](CC(C)C)NC(=O)c2ccc(N(C)C)cc2)c1 [Example 65, (3aR,6aS)-4-Dimethylamino-N-{(1S)-1-[4-(3-methoxy-benzoyl)-6-oxo-hexahydro-pyrrolo[3,2-b]pyrrole-1-carbonyl]-3-methyl-butyl}-benzamide]
< 5 µM: all assays above

CC(C)C[C@H](NC(=O)c1ccc(N2CCCC2)cc1)C(=O)N1CC[C@@H]2[C@H]1C(=O)CN2C(=O)c1ccccc1 [Example 193, (3aR,6aS)-N-[(1S)-1-(4-Benzoyl-6-oxo-hexahydro-pyrrolo[3,2-b]pyrrole-1-carbonyl)-3-methyl-butyl]-4-pyrrolidin-1-yl-benzamide]
< 5 µM: all assays above

CC(C)C[C@H](NC(=O)c1cccc(CN)c1)C(=O)N1CC[C@@H]2[C@H]1C(=O)CN2C(=O)c1ccccc1 [Example 92, (3aR,6aS)-3-Aminomethyl-N-[(1S)-1-(4-benzoyl-6-oxo-hexahydro-pyrrolo[3,2-b]pyrrole-1-carbonyl)-3-methyl-butyl]-benzamide]
< 5 µM: all assays above

CC(C)C[C@H](NC(=O)c1ccc(C(C)C)cc1)C(=O)N1CC[C@@H]2[C@H]1C(=O)CN2C(=O)c1ccccc1 [Example 172, (3aR,6aS)-N-[(1S)-1-(4-Benzoyl-6-oxo-hexahydro-pyrrolo[3,2-b]pyrrole-1-carbonyl)-3-methyl-butyl]-4-isopropyl-benzamide]
< 5 µM: all assays above

CC(C)C[C@H](NC(=O)c1ccc(N2CCOCC2)cc1)C(=O)N1CC[C@@H]2[C@H]1C(=O)CN2C(=O)c1ccccc1 [Example 85, (3aR,6aS)-N-[(1S)-1-(4-Benzoyl-6-oxo-hexahydro-pyrrolo[3,2-b]pyrrole-1-carbonyl)-3-methyl-butyl]-4-morpholin-4-yl-benzamide]
< 5 µM: all assays above
